Assay results as given in US10975068B2, “6-aminopyridin-3-yl thiazoles as modulators of RORγT” (Janssen Pharmaceutica NV, priority 2016, dated 2021).

How the values were obtained:
[1] = target: human RORγt ligand binding domain (RORγt LBD) (Homo sapiens (Human), UniProt P51449); assay: RORγt ThermoFluor® assay (thermal shift binding); details: read-out: ThermoFluor® Assay, Kd
In short: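 His-tagged human RORγt LBD (0.065 mg/mL) with 60 μM 1,8-ANS in 100 mM Hepes pH 7.0, 10 mM NaCl, 2.5 mM GSH, 0.002% Tween-20 was heated at 1 °C/min.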

full-length human RORγt = full-length human RORγt (Homo sapiens (Human), UniProt P51449); assay: RORγt (full-length human) reporter assay, Conditions A; assay type: cell-based; details: Conditions A; for IC50: read-out: RORγt (FL) Reporter Assay A, IC50; for inhibition at 6 µM: read-out: RORγt (FL) Reporter Assay A, % inhibition @ 6 μM; for RORγt (FL) Reporter Assay A, % inhibition (value marked **): marked **: footnote not shown
Sequence of full-length human RORγt (P51449 other isoform, or with tags, fused parts or gaps): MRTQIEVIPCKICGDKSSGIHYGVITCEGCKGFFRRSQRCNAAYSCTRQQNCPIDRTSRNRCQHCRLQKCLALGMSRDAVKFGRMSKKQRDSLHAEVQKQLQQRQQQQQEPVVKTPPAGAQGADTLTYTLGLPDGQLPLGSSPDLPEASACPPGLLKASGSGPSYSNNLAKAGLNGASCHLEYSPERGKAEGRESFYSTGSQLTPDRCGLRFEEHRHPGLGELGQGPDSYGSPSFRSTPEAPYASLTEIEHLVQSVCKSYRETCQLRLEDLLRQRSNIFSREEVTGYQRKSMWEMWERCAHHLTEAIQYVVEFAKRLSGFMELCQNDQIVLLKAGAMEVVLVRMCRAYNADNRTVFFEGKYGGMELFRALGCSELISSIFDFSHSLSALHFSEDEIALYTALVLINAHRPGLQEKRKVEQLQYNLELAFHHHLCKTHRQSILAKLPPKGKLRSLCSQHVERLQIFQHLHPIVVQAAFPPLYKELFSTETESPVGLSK
Excerpt: RORγt (Full-Length Human) Reporter Assay:
Cells used in this assay were transiently co-transfected with three different plasmids, one expressing the GAL4-DNA binding domain (DBD)-RORγt fusion protein under control of a CMV promoter (NH2-Gal4-DBD:RORC-COOH in pCMV-BD, Stratagene #211342), and two reporter plasmids—the firefly luciferase reporter under control of a GAL4 promoter (pFR-Luc 2×GAL4) and Renilla luciferase reporter under control of CMV promoter (pRL-CMV, Promega # E2261). The full-length coding sequence was used for human RORγt, i.e., nucleotides 142-1635 of human RORγt, transcript variant 2, NCBI Accession: NM_001001523.1 (SEQ ID NO:1). HEK293T cells were plated at 35000 per well in 96-well plate in medium of MEM with 8.6% FBS. After 18-22 hours incubation, the transfection was carried out by using a PEI solution with 170.5 ng total DNA/well (50 ng pCMV-BD-ROR plus 20 ng of pFR-Luc reporter and 0.5 ng of pRL-CMV reporter plus 100 ng Carrier DNA (Clontech #630440) for each well). 4-6 hours after transfection, cells were treated with compounds for overnight in the medium with final concentration of FBS 1.1% and DMSO 0.1%. After overnight (16 to 20 hours) incubation, media were removed and cells were lysed with 20 μL 1× Passive Lysis Buffer (Promega) for 10-15 minutes. Luminescence was measured using a BMG LUMIstar OPTIMA plate reader, after addition of 75 μL/well firefly luciferase buffer, followed by 75 μL/well Renilla luciferase buffer. To calculate the effect of compounds on RORγt activity, firefly values were normalized against values of DMSO only and values of reference compound at saturating concentration, then further normalized against Renilla signals. IC50s were generated by plotting final Renilla normalized data against compound concentration and percent inhibition was calculated against DMSO control.

Sequence of human RORγt ligand binding domain (RORγt LBD) (P51449 other isoform, or with tags, fused parts or gaps): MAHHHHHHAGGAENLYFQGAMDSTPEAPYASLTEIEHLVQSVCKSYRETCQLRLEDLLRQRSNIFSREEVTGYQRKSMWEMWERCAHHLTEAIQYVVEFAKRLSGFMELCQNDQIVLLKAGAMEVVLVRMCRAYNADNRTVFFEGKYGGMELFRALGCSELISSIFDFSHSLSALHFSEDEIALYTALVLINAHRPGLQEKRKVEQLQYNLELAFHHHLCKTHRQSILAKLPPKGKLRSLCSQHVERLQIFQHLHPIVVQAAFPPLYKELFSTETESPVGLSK

| Kd [1] [nM] | IC50 (full-length human RORγt) [nM] | inhibition at 6 µM (full-length human RORγt) [%] | RORγt (FL) Reporter Assay A, % inhibition (value marked **) (full-length human RORγt) | Structure (SMILES) |
| --- | --- | --- | --- | --- |
| 170 | 630 | 85 | – | CCOc1cc(NC2CCCCC2)ncc1-c1sc(C(=O)NCC(C)(C)O)nc1C(=O)N1CCC(F)CC1 [Example 69, 5-(6-(Cyclohexylamino)-4-ethoxypyridin-3-yl)-4-(4-fluoropiperidine-1-carbonyl)-N-(2-hydroxy-2-methylpropyl)thiazole-2-carboxamide] |
| – | 250 | 96 | – | COc1cc(NC2CCCCC2)ncc1-c1sc(C(=O)NCC(C)(C)O)nc1C(=O)N1CCC(F)CC1 [Example 63, 5-(6-(Cyclohexylamino)-4-methoxypyridin-3-yl)-4-(4-fluoropiperidine-1-carbonyl)-N-(2-hydroxy-2-methylpropyl)thiazole-2-carboxamide] |
| 41 | 150 | 85 | – | Cc1c(-c2sc(C(=O)NCC(C)(C)O)nc2C(=O)N2CCC(F)CC2)cnc(NC2CCCCC2)c1F [Example 66, 5-(6-(Cyclohexylamino)-5-fluoro-4-methylpyridin-3-yl)-4-(4-fluoropiperidine-1-carbonyl)-N-(2-hydroxy-2-methylpropyl)thiazole-2-carboxamide] |
| 130 | 470 | 105 | – | CC(C)(O)CNC(=O)c1nc(C(=O)N2CCC(F)CC2)c(-c2cnc(NC3CC(F)(F)C3)c(C(F)(F)F)c2)s1 [Example 16, 5-(6-((3,3-Difluorocyclobutyl)amino)-5-(trifluoromethyl)pyridin-3-yl)-4-(4-fluoropiperidine-1-carbonyl)-N-(2-hydroxy-2-methylpropyl)thiazole-2-carboxamide] |
| 0.15 | 9 | – | 95** % | C[C@H]1CCCCN1C(=O)c1nc(C(=O)NC2CCS(=O)(=O)CC2)sc1-c1cnc(NC2CCCCC2)cc1C(F)(F)F [Example 17, (S)-5-(6-(Cyclohexylamino)-4-(trifluoromethyl)pyridin-3-yl)-N-(1,1-dioxidotetrahydro-2H-thiopyran-4-yl)-4-(2-methylpiperidine-1-carbonyl)thiazole-2-carboxamide] |
| ~10 | 160 | 110 | – | CC(C)(O)CNC(=O)c1nc(C(=O)N2CCC(F)CC2)c(-c2cnc(NC3CCCCC3)c(C(F)F)c2)s1 [Example 6, 5-(6-(Cyclohexylamino)-5-(difluoromethyl)pyridin-3-yl)-4-(4-fluoropiperidine-1-carbonyl)-N-(2-hydroxy-2-methylpropyl)thiazole-2-carboxamide] |
| 20 | 97 | 107 | – | CC(C)(O)CNC(=O)c1nc(C(=O)N2CCC(F)CC2)c(-c2cnc(NC3CC4(CCC4)C3)cc2C(F)(F)F)s1 [Example 24, 4-(4-Fluoropiperidine-1-carbonyl)-N-(2-hydroxy-2-methylpropyl)-5-(6-(spiro[3.3]heptan-2-ylamino)-4-(trifluoromethyl)pyridin-3-yl)thiazole-2-carboxamide] |
| 370 | 1100 | 70 | – | CC(C)(O)CNC(=O)c1nc(C(=O)N2CCC(F)CC2)c(-c2cnc(NC3CCCCC3)c(C#N)c2C(F)(F)F)s1 [Example 68, 5-(5-Cyano-6-(cyclohexylamino)-4-(trifluoromethyl)pyridin-3-yl)-4-(4-fluoropiperidine-1-carbonyl)-N-(2-hydroxy-2-methylpropyl)thiazole-2-carboxamide] |
| 36 | 130 | 108 | – | CCc1cc(NC2CCCCC2)ncc1-c1sc(C(=O)NCC(C)(C)O)nc1C(=O)N1CCC(F)CC1 [Example 70, 5-(6-(cyclohexylamino)-4-ethylpyridin-3-yl)-4-(4-fluoropiperidine-1-carbonyl)-N-(2-hydroxy-2-methylpropyl)thiazole-2-carboxamide] |
| 7.5 | 39 | – | 105** % | CC(C)(O)CCNC(=O)c1nc(C(=O)N2CCC(F)(F)CC2)c(-c2cnc(NC3CCCCC3)cc2C(F)(F)F)s1 [Example 15, 5-(6-(Cyclohexylamino)-4-(trifluoromethyl)pyridin-3-yl)-4-(4,4-difluoropiperidine-1-carbonyl)-N-(3-hydroxy-3-methylbutyl)thiazole-2-carboxamide] |
| 8.1 | 71 | 108 | – | CC(C)(O)CNC(=O)c1nc(C(=O)N2CCC(F)CC2)c(-c2cnc(NC3CCCC3)cc2C(F)(F)F)s1 [Example 10, 5-(6-(Cyclopentylamino)-4-(trifluoromethyl)pyridin-3-yl)-4-(4-fluoropiperidine-1-carbonyl)-N-(2-hydroxy-2-methylpropyl)thiazole-2-carboxamide] |
| 2.6 | 17 | – | 107** % | C[C@H]1CC(F)(F)CN1C(=O)c1nc(C(=O)NCC(C)(C)O)sc1-c1cnc(NC2CCCCC2)cc1C(F)(F)F [Example 11, (S)-5-(6-(Cyclohexylamino)-4-(trifluoromethyl)pyridin-3-yl)-4-(4,4-difluoro-2-methylpyrrolidine-1-carbonyl)-N-(2-hydroxy-2-methylpropyl)thiazole-2-carboxamide] |
| 79 | 78 | 106 | – | CC(C)(O)CNC(=O)c1nc(C(=O)N2CCC(F)CC2)c(-c2cnc(NC3CCCCC3)cc2C#N)s1 [Example 57, 5-(4-Cyano-6-(cyclohexylamino)pyridin-3-yl)-4-(4-fluoropiperidine-1-carbonyl)-N-(2-hydroxy-2-methylpropyl)thiazole-2-carboxamide] |
| 440 | 910 | 84 | – | CC(C)(O)CNC(=O)c1nc(C(=O)N2CCC(F)CC2)c(-c2cnc(NC3CC4(C3)CC(F)(F)C4)cc2C(F)(F)F)s1 [Example 22, 5-(6-((6,6-Difluorospiro[3.3]heptan-2-yl)amino)-4-(trifluoromethyl)pyridin-3-yl)-4-(4-fluoropiperidine-1-carbonyl)-N-(2-hydroxy-2-methylpropyl)thiazole-2-carboxamide] |
| 0.25 | 9 | 104 | – | C[C@H]1CCCCN1C(=O)c1nc(C(=O)NCC(C)(C)O)sc1-c1cnc(NC2CCCCC2)cc1C(F)(F)F [Example 5, (S)-5-(6-(Cyclohexylamino)-4-(trifluoromethyl)pyridin-3-yl)-N-(2-hydroxy-2-methylpropyl)-4-(2-methylpiperidine-1-carbonyl)thiazole-2-carboxamide] |
| 52 | 400 | 98 | – | Cc1cc(NC2CCCCC2)ncc1-c1sc(C(=O)NCC(C)(C)O)nc1C(=O)N1CCC(F)CC1 [Example 67, 5-(6-(Cyclohexylamino)-4-methylpyridin-3-yl)-4-(4-fluoropiperidine-1-carbonyl)-N-(2-hydroxy-2-methylpropyl)thiazole-2-carboxamide] |
| 160 | 430 | 90.3 | – | Cc1c(-c2sc(C(=O)NCC(C)(C)O)nc2C(=O)N2CCC(F)CC2)cnc(NC2CCCCC2)c1C#N [Example 60, 5-(5-Cyano-6-(cyclohexylamino)-4-methylpyridin-3-yl)-4-(4-fluoropiperidine-1-carbonyl)-N-(2-hydroxy-2-methylpropyl)thiazole-2-carboxamide] |
| – | – | 100 | – | CC(C)(O)CNC(=O)c1nc(C(=O)N2CCC(F)CC2)c(-c2cnc(NC3CC(F)(F)C3)cc2C(F)(F)F)s1 [Example 21, 5-(6-((3,3-Difluorocyclobutyl)amino)-4-(trifluoromethyl)pyridin-3-yl)-4-(4-fluoropiperidine-1-carbonyl)-N-(2-hydroxy-2-methylpropyl)thiazole-2-carboxamide] |
| – | 700 | 88 | – | COc1cc(-c2sc(C(=O)NCC(C)(C)O)nc2C(=O)N2CCC(F)CC2)cnc1NC1CCCCC1 [Example 59, 5-(6-(Cyclohexylamino)-5-methoxypyridin-3-yl)-4-(4-fluoropiperidine-1-carbonyl)-N-(2-hydroxy-2-methylpropyl)thiazole-2-carboxamide] |
| – | 210 | 103 | – | CC(C)c1cc(NC2CCCCC2)ncc1-c1sc(C(=O)NCC(C)(C)O)nc1C(=O)N1CCC(F)CC1 [Example 65, 5-(6-(Cyclohexylamino)-4-isopropylpyridin-3-yl)-4-(4-fluoropiperidine-1-carbonyl)-N-(2-hydroxy-2-methylpropyl)thiazole-2-carboxamide] |
